Results published in BindingDB's records for doi:10.1016/j.bmcl.2008.10.113 (Ucb Pharma, 2008).

Target: Bcl-xL
Experiment: Inhibition of GST fused Bcl-xL binding to biotinylated 16 mer Bak-BH3 peptide by HTRF-LANCE assay

Q: `CNC[C@@H]1Cc2ccccc2CN1C(=O)c1ccccc1-n1nc(C(=O)N(c2ccccc2)c2ccccc2)cc1C` [5-methyl-1-(2-((S)-3-((methylamino)methyl)-1,2,3,4-tetrahydroisoquinoline-2-carbonyl)phenyl)-N,N-diphenyl-1H-pyrazole-3-carboxamide] was tested. Which IC50 did it give?
A: 12.6 µM

Q: How did the IC50 turn out when `Cc1cc(C(=O)N(c2ccccc2)c2ccccc2)nn1-c1ccccc1C(=O)N1Cc2ccccc2C[C@H]1CN(C)C` [1-(2-((S)-3-((dimethylamino)methyl)-1,2,3,4-tetrahydroisoquinoline-2-carbonyl)phenyl)-5-methyl-N,N-diphenyl-1H-pyrazole-3-carboxamide] was run?
A: 6.79 µM

Q: Which IC50 does the source give for `COC[C@@H]1Cc2ccccc2CN1C(=O)c1ccccc1-n1nc(C(=O)N(c2ccccc2)c2ccccc2)cc1C` [1-(2-((S)-3-(methoxymethyl)-1,2,3,4-tetrahydroisoquinoline-2-carbonyl)phenyl)-5-methyl-N,N-diphenyl-1H-pyrazole-3-carboxamide] here?
A: 5.57 µM

Q: How did the IC50 turn out when `CC(=O)NC[C@@H]1Cc2ccccc2CN1C(=O)c1ccccc1-n1nc(C(=O)N(c2ccccc2)c2ccccc2)cc1C` [1-(2-((S)-3-(acetamidomethyl)-1,2,3,4-tetrahydroisoquinoline-2-carbonyl)phenyl)-5-methyl-N,N-diphenyl-1H-pyrazole-3-carboxamide] was run?
A: 9.69 µM

Q: Which IC50 does the source give for `CCOC(=O)[C@@H]1Cc2ccccc2CN1C(=O)c1ccccc1-n1nc(C(=O)N(c2ccccc2)c2ccccc2)cc1C` [(3S)-ethyl 2-(2-(3-(diphenylcarbamoyl)-5-methyl-1H-pyrazol-1-yl)benzoyl)-1,2,3,4-tetrahydroisoquinoline-3-carboxylate] here?
A: 18 µM

Q: Which IC50 does the source give for `Cc1c(Cl)c(C(=O)N(c2ccccc2)c2ccccc2)nn1-c1ccccc1C(=O)N1Cc2ccccc2C[C@H]1CO` [4-chloro-1-(2-((S)-3-(hydroxymethyl)-1,2,3,4-tetrahydroisoquinoline-2-carbonyl)phenyl)-5-methyl-N,N-diphenyl-1H-pyrazole-3-carboxamide] here?
A: 2.28 µM

Q: Which IC50 does the source give for `Cc1cc(C(=O)N(c2ccccc2)c2ccccc2)nn1-c1ccccc1C(=O)N1Cc2ccccc2C[C@H]1CN` [1-(2-((S)-3-(aminomethyl)-1,2,3,4-tetrahydroisoquinoline-2-carbonyl)phenyl)-5-methyl-N,N-diphenyl-1H-pyrazole-3-carboxamide] here?
A: 11.4 µM

Q: For `Cc1c(Br)c(C(=O)N(c2ccccc2)c2ccccc2)nn1-c1ccccc1C(=O)N1Cc2ccccc2C[C@H]1CO` [4-bromo-1-(2-((S)-3-(hydroxymethyl)-1,2,3,4-tetrahydroisoquinoline-2-carbonyl)phenyl)-5-methyl-N,N-diphenyl-1H-pyrazole-3-carboxamide], which IC50 is on record?
A: 2.41 µM
